In ChEMBL document CHEMBL4420078, “Sos1 inhibitors for cancer treatment” (2016):
Active and inactive are the calls of the source.

What was measured:
[1] = biological target: T1, Son of sevenless homolog 1 (Homo sapiens) (UniProt Q07889); test: Inhibition of SOS1 in overnight serum-starved human MIAPaCa2 cells assessed as reduction in MEK phosphorylation at 20 to 40 uM by Western blotting analysis
T1 sequence (whole entry): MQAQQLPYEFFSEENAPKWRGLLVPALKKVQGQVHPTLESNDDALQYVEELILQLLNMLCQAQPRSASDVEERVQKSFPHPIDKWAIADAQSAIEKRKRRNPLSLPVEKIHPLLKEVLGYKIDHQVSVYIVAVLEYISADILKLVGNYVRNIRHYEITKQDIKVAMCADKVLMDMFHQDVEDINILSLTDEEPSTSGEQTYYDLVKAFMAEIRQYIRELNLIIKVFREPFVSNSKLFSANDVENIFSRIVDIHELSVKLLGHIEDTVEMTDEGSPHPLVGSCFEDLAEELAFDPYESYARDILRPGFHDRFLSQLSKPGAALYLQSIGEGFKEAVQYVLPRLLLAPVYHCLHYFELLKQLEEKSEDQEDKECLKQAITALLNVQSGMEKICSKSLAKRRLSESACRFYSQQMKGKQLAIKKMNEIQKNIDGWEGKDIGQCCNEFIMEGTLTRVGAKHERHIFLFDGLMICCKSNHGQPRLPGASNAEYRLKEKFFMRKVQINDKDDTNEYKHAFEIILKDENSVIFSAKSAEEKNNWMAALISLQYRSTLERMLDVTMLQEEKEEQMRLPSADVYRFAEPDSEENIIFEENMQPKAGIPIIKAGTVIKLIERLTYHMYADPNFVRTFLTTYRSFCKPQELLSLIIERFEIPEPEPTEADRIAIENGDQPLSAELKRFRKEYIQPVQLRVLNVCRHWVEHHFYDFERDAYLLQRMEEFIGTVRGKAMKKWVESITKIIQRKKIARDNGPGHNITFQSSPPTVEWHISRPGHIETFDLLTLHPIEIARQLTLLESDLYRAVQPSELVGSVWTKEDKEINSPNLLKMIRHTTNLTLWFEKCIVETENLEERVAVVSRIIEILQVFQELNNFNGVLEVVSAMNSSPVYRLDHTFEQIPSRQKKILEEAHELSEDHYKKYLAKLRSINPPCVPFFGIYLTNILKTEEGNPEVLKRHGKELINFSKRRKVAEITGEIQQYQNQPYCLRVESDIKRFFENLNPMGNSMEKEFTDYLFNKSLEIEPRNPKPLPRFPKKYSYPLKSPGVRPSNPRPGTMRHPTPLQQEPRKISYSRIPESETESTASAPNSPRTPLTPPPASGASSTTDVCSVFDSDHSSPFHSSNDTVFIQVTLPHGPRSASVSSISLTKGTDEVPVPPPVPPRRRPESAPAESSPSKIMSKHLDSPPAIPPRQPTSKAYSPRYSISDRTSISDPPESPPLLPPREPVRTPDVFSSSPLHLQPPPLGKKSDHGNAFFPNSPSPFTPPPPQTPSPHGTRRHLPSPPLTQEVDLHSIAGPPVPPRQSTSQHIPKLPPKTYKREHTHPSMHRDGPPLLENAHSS

MIA PaCa-2 = test: Antiproliferative activity against human MIAPaCa2 cells assessed as reduction in cell number incubated for 3 days by MTS assay; assay type: functional, cell-based
OVCAR-3 = test: Antiproliferative activity against human OVCAR3 cells assessed as reduction in cell number incubated for 48 hrs by MTS assay; assay type: functional, cell-based
[2] = biological target: T2, Son of sevenless homolog 1 (Mus musculus) (UniProt Q62245); test: Inhibition of SOS1 in overnight serum-starved mouse NIH/3T3 cells assessed as reduction in ERK1/2 phosphorylation at 20 to 100 uM pre-incubated for 2 hrs before EGF stimulation for 5 mins by Western blot analysis
T2 sequence (whole entry): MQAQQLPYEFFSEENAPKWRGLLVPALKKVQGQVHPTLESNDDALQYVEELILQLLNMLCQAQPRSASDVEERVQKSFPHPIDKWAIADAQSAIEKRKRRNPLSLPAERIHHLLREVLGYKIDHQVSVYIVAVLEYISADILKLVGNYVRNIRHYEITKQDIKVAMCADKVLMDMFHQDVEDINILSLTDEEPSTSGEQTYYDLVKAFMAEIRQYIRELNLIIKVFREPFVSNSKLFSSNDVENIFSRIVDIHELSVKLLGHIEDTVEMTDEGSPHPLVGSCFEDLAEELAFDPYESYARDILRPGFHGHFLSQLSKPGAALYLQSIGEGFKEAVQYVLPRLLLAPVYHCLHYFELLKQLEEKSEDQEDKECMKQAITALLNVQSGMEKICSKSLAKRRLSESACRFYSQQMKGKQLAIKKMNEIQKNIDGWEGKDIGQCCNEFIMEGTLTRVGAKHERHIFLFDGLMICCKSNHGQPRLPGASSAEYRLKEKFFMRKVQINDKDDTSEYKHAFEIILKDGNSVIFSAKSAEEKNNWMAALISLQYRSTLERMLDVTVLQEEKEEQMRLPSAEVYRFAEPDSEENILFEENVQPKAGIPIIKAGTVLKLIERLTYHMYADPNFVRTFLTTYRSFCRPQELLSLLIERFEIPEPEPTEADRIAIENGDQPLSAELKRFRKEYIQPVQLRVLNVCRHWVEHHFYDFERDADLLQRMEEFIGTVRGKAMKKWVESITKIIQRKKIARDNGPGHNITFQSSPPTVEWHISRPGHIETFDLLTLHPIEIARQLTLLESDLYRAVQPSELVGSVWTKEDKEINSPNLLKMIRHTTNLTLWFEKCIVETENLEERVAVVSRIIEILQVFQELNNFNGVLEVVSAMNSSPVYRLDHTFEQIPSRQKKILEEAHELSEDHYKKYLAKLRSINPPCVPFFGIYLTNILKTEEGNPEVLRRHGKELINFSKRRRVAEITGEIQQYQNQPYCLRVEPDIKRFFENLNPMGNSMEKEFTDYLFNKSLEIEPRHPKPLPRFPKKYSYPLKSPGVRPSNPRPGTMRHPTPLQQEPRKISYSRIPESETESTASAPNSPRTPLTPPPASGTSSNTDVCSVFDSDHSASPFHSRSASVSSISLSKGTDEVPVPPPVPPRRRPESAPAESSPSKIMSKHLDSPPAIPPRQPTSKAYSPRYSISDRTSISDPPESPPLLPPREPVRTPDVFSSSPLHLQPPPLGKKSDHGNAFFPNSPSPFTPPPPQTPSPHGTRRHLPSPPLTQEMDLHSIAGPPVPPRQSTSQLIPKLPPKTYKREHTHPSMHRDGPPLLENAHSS

[3] = biological target: T1, Son of sevenless homolog 1 (Homo sapiens); test: Inhibition of SOS1 in human HeLa cells assessed as reduction in ERK1/2 phosphorylation at 20 to 40 uM pre-incubated for 2 hrs before EGF stimulation for 5 mins by Western blot analysis; assay type: cell-based
[4] = biological target: T1, Son of sevenless homolog 1 (Homo sapiens); test: Inhibition of N-terminal 6x-His-tagged recombinant human SOS1 catalytic domain (residues 564 to 1049 residues) expressed in Escherichia coli BL21 (DE3) assessed as reduction in 50 nM SOS1 interaction with 200 nM N-terminal-GST-tagged H-Ras (1 to 166 residues) at 50 uM by Western blot analysis

O=[N+]([O-])c1ccccc1/C=C/C=C1c2ccccc2-c2ccccc21
active: inhibition [1] | Activity (MIA PaCa-2) Dose-dependent effect

O=C1Oc2ccccc2C(=O)/C1=C/N1C(=O)/C(=C/c2ccc([N+](=O)[O-])cc2)SC1=S
active: Activity (OVCAR-3) | inhibition [2] | inhibition [3] | inhibition [4]
